{
  "source": "paper PMC3001897",
  "about": "“High-Throughput Chemical Screen Identifies a Novel Potent Modulator of Cellular Circadian Rhythms and Reveals CKIα as a Clock Regulatory Kinase” (PLoS Biology, 2010)",
  "key": {"[1]": {"system": "SCN explants", "assay": "Circadian period in SCN explants from mPer2Luc knockin mice", "format": "cell-based, mouse", "details": "0 to 9 µM", "description": "Explants of lung and SCN were dissected from mPer2^Luc knockin mice and cultured in explant medium as described previously. The medium was changed every week with increasing concentration of longdaysin each time (from 0 to 9 µM, final 0.7% DMSO). The luminescence was recorded every 10 min with LumiCycle luminometer (Actimetrics), and the period parameter was obtained by using LumiCycle Analysis software (Actimetrics)."}, "[2]": {"target": "T1, CKIδ (Homo sapiens, UniProt P48730)", "T1 sequence (P48730 whole entry, species assumed, the tested form may be a part)": "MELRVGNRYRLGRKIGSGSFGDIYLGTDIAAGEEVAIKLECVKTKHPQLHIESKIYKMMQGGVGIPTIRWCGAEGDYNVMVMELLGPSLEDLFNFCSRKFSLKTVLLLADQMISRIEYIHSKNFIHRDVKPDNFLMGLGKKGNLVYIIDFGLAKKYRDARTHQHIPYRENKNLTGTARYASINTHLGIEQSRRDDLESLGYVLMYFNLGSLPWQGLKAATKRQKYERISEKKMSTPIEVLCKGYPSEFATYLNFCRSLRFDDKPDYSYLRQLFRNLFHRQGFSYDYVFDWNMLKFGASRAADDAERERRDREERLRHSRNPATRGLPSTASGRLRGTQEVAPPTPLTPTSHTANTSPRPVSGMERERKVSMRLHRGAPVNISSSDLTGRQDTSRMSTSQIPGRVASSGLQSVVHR", "assay": "Cell-based PER1 degradation assay (PER1-LUC), CKIδ", "description": "HEK293T cells (6.0×10^4 cells) were reverse transfected on 96-well white solid-bottom plates by Lipofectamine 2000 with 40 ng each of expression vectors for C-terminally luciferase-fused PER1 (in p3XFLAG-CMV-14) and N-terminally HA-tagged kinase (in p3XFLAG-CMV-14). For luciferase (in p3XFLAG-CMV-14), 2 ng of expression vector with 38 ng of empty vector was used because of its efficient expression. After 48 h, the medium was supplemented with luciferin (final 1 mM) and HEPES-NaOH (pH 7.2; final 10 mM). After 1 h, cycloheximide (final 20 µg/ml) was added to the medium, and the plate was covered with optically clear film. The luminescence was recorded every 10 min by using the Tecan luminometer. Half-life was obtained by using Prism software (GraphPad Software)."}, "[3]": {"target": "T1, CKIδ", "assay": "In vitro kinase assay, CKIδ", "format": "biochemical", "design": "purchased Millipore 14-520", "details": "ATP 5 µM; from Figure 2E", "description": "The CKIδ, CKIα, CDK7, and ERK2 kinase assays were performed on 384-well plates (10 µl volume). The reaction mixture was as follows: for CKIδ, 2 ng/µl CKIδ (Millipore, 14-520), 50 µM peptide substrate RKKKAEpSVASLTSQCSYSS corresponding to human PER2 Lys659-Ser674 [47], and CKI buffer (40 mM Tris, 10 mM MgCl2, 0.5 mM DTT, 0.1 mg/ml BSA, pH 7.5); for CKIα, 1 ng/µl CKIα (Invitrogen, PV3850), 50 µM CKI peptide substrate (Anaspec, 60547-1), and CKI buffer; for CDK7, 5 ng/µl CDK7 (Millipore, 14-476), 100 µM Cdk7/9 peptide substrate (Millipore, 12-526), and CKI buffer; for ERK2, 1.5 ng/µl ERK2 (Millipore, 14-550), 0.8 µg/µl MBP (Millipore, 13-104), and ERK buffer (50 mM Tris, 10 mM MgCl2, 0.5 mM DTT, 1 mM EGTA, pH 7.5). Five hundred nl of compound was added to the mixture (final 5% DMSO), and the reaction was started by adding ATP (final 5 µM). After incubation at 30°C for 3h, 10 µl of Kinase-Glo Luminescent Kinase Assay reagent (Promega) was added, and the luminescence was detected to determine remaining ATP amount. […] IC50 value was obtained by using Prism software (GraphPad Software)."}, "[4]": {"system": "CKIα- and CKIδ-accelerated degradation of PER1", "assay": "Flag-tagged PER1 degradation by Western blot in HEK293T cells", "format": "cell-based", "details": "24 h"}},
  "note": "pEC50, pIC50: −log10 of the molar value.",
  "data": [
    {"molecule": "CC(C)n1cnc2c(NCc3cccc(C(F)(F)F)c3)ncnc21", "note": "[Longdaysin, 9-isopropyl-N-(3-(trifluoromethyl)benzyl)-9H-purin-6-amine]", "values": [
      {"measurement": "Effect on circadian period", "setting": "[1]", "result": "dose-dependent period lengthening"},
      {"measurement": "pEC50", "setting": "[2]; HEK293T cells, 24 h treatment, from Figure 4E", "result": 5.01},
      {"measurement": "Effect on CKIδ-dependent degradation of PER1", "setting": "[2]; HEK293T, 0 to 20 µM, 24 h", "result": "inhibited by longdaysin treatment in a dose-dependent manner"},
      {"measurement": "pIC50", "setting": "[3]", "result": 5.06},
      {"measurement": "Inhibition of CKIα and CKIδ effects on PER1 degradation", "setting": "[4]; 10 µM", "result": "partially inhibited"},
      {"measurement": "Inhibition of CKIα and CKIδ effects on PER1 degradation", "setting": "[4]; 20 µM", "result": "strongly inhibited"}
    ]}
  ]
}
